{
  "source": "ChEMBL document CHEMBL1201862",
  "about": "“PubChem BioAssay data set” (2004)",
  "key": {"Vasopressin V2 receptor": {"target": "Vasopressin V2 receptor (Homo sapiens, UniProt P30518)", "sequence (P30518 whole entry)": "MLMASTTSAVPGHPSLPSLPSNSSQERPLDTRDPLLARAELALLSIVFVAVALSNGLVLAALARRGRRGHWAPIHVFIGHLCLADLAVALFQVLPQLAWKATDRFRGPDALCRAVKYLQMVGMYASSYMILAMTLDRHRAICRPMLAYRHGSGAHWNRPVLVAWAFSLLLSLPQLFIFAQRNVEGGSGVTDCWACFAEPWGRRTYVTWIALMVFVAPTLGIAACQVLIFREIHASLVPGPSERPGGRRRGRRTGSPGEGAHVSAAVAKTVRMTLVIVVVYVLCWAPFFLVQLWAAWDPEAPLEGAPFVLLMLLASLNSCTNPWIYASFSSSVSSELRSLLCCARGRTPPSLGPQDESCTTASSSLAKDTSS", "assay": "Late-stage results from the probe development effort to identify antagonists of arginine vasopressin receptor 1a (AVPR1a): fluorescence-based cell-based dose response AVPR2 inhibition counterscreen assay.", "format": "functional"}, "[1]": {"assay": "Late-stage results from the probe development effort to identify antagonists of arginine vasopressin receptor 1a (AVPR1a): fluorescence-based cell-based dose response OXTR inhibition counterscreen assay.", "format": "functional"}, "Vasopressin V1b receptor": {"target": "Vasopressin V1b receptor (Homo sapiens, UniProt P47901)", "sequence (P47901 whole entry)": "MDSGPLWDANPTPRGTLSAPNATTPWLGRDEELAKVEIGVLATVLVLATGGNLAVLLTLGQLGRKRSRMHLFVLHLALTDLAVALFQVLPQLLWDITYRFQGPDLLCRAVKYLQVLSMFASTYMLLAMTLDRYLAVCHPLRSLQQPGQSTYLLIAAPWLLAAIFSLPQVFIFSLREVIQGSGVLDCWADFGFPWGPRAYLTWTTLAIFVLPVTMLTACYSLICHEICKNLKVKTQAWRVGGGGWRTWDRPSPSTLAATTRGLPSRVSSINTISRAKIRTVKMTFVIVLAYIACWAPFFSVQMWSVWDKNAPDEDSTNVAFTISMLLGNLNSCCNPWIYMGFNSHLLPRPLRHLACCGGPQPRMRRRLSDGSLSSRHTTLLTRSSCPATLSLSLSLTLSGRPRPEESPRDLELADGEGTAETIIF", "assay": "Late-stage results from the probe development effort to identify antagonists of arginine vasopressin receptor 1a (AVPR1a): fluorescence-based cell-based dose response AVPR1b inhibition counterscreen assay.", "format": "functional"}, "[2]": {"assay": "Late-stage results from the probe development effort to identify antagonists of arginine vasopressin receptor 1a (AVPR1a): fluorescence-based cell-based dose response AVPR1a inhibition assay.", "format": "functional"}, "[3]": {"assay": "Glucagon-like peptide 1 release potency, NCI-H716 cell line, dose-response, half-maximal inhibitory concentration (AID 1117344)", "format": "functional, cell-based"}, "[4]": {"assay": "half-maximal inhibitory concentration for glucagon-like peptide-1 release, STC-1 cell line, dose-response (AID 1117345)", "format": "functional, cell-based"}, "[5]": {"target": "E3 ubiquitin-protein ligase Mdm2 (Homo sapiens, UniProt Q00987)", "sequence (Q00987 whole entry)": "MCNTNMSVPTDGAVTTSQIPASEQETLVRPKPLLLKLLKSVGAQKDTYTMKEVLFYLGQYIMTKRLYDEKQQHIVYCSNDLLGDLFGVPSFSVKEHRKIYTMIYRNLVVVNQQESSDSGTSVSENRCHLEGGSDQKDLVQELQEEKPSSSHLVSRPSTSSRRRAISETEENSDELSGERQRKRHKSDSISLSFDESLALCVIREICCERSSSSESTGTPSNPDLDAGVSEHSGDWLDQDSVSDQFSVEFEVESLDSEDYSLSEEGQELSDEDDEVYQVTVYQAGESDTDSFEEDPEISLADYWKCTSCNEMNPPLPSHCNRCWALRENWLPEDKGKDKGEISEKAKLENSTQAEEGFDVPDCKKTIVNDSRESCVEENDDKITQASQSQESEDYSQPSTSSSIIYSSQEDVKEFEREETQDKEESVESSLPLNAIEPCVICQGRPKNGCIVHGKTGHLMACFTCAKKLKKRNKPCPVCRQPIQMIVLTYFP", "assay": "enhancers of MDM2-luciferase reporter signal, concentration-effect titration, project on inhibitors of MDM2 ubiquitin ligase, cellular assay, luminescent readout, 384-well plate format (AID 1394);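 also: MDM2 E3 inhibitors raise luminescence so EC50 is for signal enhancement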", "format": "functional"}, "[6]": {"assay": "Luminescence Cell-Based Dose Retest to Confirm Inhibitors of Cancer Stem Cells. [Related pubchem assays (depositor defined):AID2717, AID2721]", "format": "functional", "conditions": "Homo sapiens"}, "Vero": {"test_system": "Vero", "assay": "cells", "format": "functional", "conditions": "Chlorocebus sabaeus"}, "[7]": {"assay": "insulin promoter down-regulators in MIN6 cells, imaging, high-content screening, mouse beta cells (AID 1628)", "format": "functional"}, "[8]": {"assay": "cytotoxicity in MIN6 insulinoma cells, dose response, cytotoxicity control, cell-based, mouse insulinoma (AID 2122);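 also: confirmatory high-throughput counterscreen run to flag cytotoxic compounds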", "format": "functional"}, "[9]": {"target": "T1, Nuclear receptor subfamily 0 group B member 1 (Homo sapiens, UniProt P51843)", "T1 sequence (P51843 whole entry)": "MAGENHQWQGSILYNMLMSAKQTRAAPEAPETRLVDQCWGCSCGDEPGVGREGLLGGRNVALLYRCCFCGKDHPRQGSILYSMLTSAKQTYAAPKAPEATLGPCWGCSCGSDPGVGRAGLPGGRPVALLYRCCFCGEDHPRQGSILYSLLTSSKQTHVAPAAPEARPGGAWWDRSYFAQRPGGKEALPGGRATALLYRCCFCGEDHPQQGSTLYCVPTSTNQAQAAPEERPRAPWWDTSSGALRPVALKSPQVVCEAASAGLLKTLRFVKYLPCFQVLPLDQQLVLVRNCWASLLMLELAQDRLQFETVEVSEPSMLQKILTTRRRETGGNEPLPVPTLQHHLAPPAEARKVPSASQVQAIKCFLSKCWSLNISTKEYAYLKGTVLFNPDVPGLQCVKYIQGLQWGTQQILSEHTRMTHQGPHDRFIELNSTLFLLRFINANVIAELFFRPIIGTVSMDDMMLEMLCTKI", "format": "functional, cell-based"}, "[10]": {"assay": "HEp-2 cell cytotoxicity, dose response, cytotoxicity control for RSV inhibitor project, HTS (AID 2410)", "format": "functional", "conditions": "human respiratory syncytial virus"}, "cells": {"assay": "cells", "format": "functional, cell-based"}, "[11]": {"target": "DNA dC->dU-editing enzyme APOBEC-3G (Homo sapiens, UniProt Q9HC16)", "sequence (Q9HC16 whole entry)": "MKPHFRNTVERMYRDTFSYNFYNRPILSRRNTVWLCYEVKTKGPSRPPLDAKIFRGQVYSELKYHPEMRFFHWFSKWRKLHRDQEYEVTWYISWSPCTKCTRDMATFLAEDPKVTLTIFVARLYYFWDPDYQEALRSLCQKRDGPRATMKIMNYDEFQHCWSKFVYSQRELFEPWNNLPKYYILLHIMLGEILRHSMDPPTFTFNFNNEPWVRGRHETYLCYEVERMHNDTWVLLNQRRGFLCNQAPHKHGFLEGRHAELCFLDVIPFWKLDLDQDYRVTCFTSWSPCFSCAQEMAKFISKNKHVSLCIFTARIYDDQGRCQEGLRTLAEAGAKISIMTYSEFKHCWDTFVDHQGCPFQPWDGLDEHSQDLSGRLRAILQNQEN", "format": "functional"}, "[12]": {"target": "DNA dC->dU-editing enzyme APOBEC-3A (Homo sapiens, UniProt P31941)", "sequence (P31941 whole entry)": "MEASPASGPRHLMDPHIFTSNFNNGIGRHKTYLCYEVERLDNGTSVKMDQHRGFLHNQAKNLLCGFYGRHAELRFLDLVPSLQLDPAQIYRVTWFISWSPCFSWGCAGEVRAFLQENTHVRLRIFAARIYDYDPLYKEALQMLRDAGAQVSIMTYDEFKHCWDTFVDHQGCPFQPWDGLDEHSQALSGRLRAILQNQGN", "assay": "Dose Response confirmation of small molecule APOBEC3A DNA Deaminase Inhibitors via a fluorescence-based single-stranded DNA deaminase assay. [Related pubchem assays (depositor defined):AID493011, AID493024]", "format": "functional"}, "[13]": {"target": "T2, Carboxy-terminal domain RNA polymerase II polypeptide A small phosphatase 1 (Homo sapiens, UniProt Q9GZU7)", "T2 sequence (Q9GZU7 whole entry)": "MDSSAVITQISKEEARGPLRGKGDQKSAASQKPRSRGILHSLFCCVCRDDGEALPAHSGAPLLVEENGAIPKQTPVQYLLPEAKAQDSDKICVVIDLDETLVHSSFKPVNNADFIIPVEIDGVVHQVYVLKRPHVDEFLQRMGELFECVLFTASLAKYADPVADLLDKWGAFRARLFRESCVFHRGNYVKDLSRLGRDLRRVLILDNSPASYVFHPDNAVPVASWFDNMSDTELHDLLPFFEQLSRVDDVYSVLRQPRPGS", "assay": "inhibitors of CTDSP1, concentration-response testing, biochemical assay, absorbance-based, actives from ultra-high-throughput screening (AID 540297)", "format": "functional"}, "Protein Tat": {"target": "Protein Tat (Human immunodeficiency virus type 1 group M subtype B (isolate HXB2)(HIV-1), UniProt P04608)", "sequence (P04608 whole entry)": "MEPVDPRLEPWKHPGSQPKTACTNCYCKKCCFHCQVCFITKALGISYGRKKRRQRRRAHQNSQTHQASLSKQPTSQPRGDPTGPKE", "format": "functional"}, "HT-1080": {"test_system": "HT-1080", "assay": "cytotoxicity in HT1080 fibrosarcoma cells, cell-based, fluorescence readout (AID 620)", "format": "functional", "conditions": "Homo sapiens"}, "[14]": {"assay": "P. falciparum Dd2 growth inhibitors, dose response, SYBR Green, dry powder samples, set 9 (AID 1159568)", "format": "functional, cell-based"}, "[15]": {"assay": "Jurkat T cell cytotoxicity, dose response, cytotoxicity control for P. falciparum gametocyte viability project, luminescence (AID 1117277);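 also: potency reflects loss of cellular ATP meaning fewer viable cells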", "format": "functional, cell-based"}, "[16]": {"assay": "P. falciparum late gametocyte killing, dose response, luminescence (AID 1117278);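 also: gametocytes exposed to compound for 24 hours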", "format": "functional, cell-based"}, "[17]": {"assay": "A549 cell cytotoxicity, dose response, cytotoxicity control, 24 h, CellTiter-Glo luminescence, cherry-picks (AID 1053115)", "format": "functional, cell-based", "conditions": "A549, 24 h"}, "[18]": {"assay": "P. falciparum Dd2 growth inhibitors, dose response, SYBR Green, cherry-picked samples (AID 1159567)", "format": "functional, cell-based"}, "[19]": {"assay": "P. falciparum ATP4 D1247Y mutant growth inhibitors, dose response, NITD609-resistant line, SYBR Green, dry powder (AID 1159571);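 also: parasites synchronized at ring stage by sorbitol before testing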", "format": "functional, cell-based"}, "[20]": {"assay": "P. falciparum 3D7-ScDHODH growth inhibitors, dose response, SYBR Green, dry powder samples (AID 1159570);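 also: parasite growth measured after 72 hours of compound exposure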", "format": "functional, cell-based"}, "[21]": {"assay": "HepG2 cell cytotoxicity, dose response, cytotoxicity control, plate reader, dry powder samples (AID 1159569);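 also: inhibitor potency with signal falling toward the positive control level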", "format": "functional, cell-based"}, "[22]": {"assay": "P. falciparum Dd2 growth inhibitors, dose response, SYBR Green, dry powder samples (AID 1159566)", "format": "functional, cell-based"}},
  "note": "Calls of active or inactive are those of the source.",
  "data": [
    {"smiles": "Cc1cccc(N2CCC(C(=O)N(CC3CC3)c3ccc(Cl)cc3)CC2)n1", "values": [
      {"measurement": "IC50", "setting": "Vasopressin V2 receptor", "value": "6.1 µM (active)"},
      {"measurement": "IC50", "setting": "[1]", "value": "5.1 µM (active)"},
      {"measurement": "IC50", "setting": "Vasopressin V1b receptor", "value": "17.6 µM (inactive)"},
      {"measurement": "IC50", "setting": "[2]", "value": "0.0248 µM (active)"}
    ]},
    {"smiles": "Cc1nnc2n1-c1sc(CCc3ccc(CC(C)C)cc3)cc1C(c1ccccc1Cl)=NC2C", "note": "(stereo unspecified) [ISRAPAFANT]", "values": [
      {"measurement": "IC50", "setting": "[3]", "value": "24.7 µM (inactive)"},
      {"measurement": "IC50", "setting": "[4]", "value": "> 40 µM (inactive)"}
    ]},
    {"smiles": "COc1ccc(/C=C/C(=O)Nc2ccc(C34CC5CC(CC(O)(C5)C3)C4)cc2)cc1OC", "values": [
      {"measurement": "EC50", "setting": "[5]", "value": "3.12 µM (not active)"},
      {"measurement": "AC50", "setting": "[6]", "value": "0.647 µM (active)"},
      {"measurement": "CC50", "setting": "Vero", "value": "20.9 µM (active)"},
      {"measurement": "IC50", "setting": "[7]", "value": "2.17 µM (active)"},
      {"measurement": "IC50", "setting": "[8]", "value": "5.21 µM (active)"},
      {"measurement": "IC50", "setting": "[9]", "value": "> 0.834 µM (active)"},
      {"measurement": "CC50", "setting": "[10]", "value": "1.48 µM (active)"},
      {"measurement": "IC50", "setting": "cells", "value": "> 67.5 µM (inactive)"}
    ]},
    {"smiles": "CCOC(=O)C1=C(COC(=O)/C=C/c2ccco2)NC(=O)NC1C", "note": "(stereo unspecified)", "values": [
      {"measurement": "IC50", "setting": "[11]", "value": "28.4 µM (active)"},
      {"measurement": "IC50", "setting": "[12]", "value": "15.9 µM (active)"},
      {"measurement": "IC50", "setting": "[13]", "value": "4.25 µM (active)"},
      {"measurement": "IC50", "setting": "Protein Tat", "value": "> 100 µM (active)"}
    ]},
    {"smiles": "CC1=C(C(=O)NC(C)CCc2ccccc2)C2(CCC(C)CC2)OC1=O", "note": "(stereo unspecified)", "values": [
      {"measurement": "EC50", "setting": "[5]", "value": "78.3 µM (not active)"}
    ]},
    {"smiles": "Cc1ccc(NC2=Nc3ccccc3CC2)cc1", "values": [
      {"measurement": "EC50", "setting": "HT-1080", "value": "> 50 µM (not active)"}
    ]},
    {"smiles": "O=C(NCC[C@H]1CC[C@H](NC(=O)c2ccccc2F)[C@@H](CO)O1)c1cnccn1", "values": [
      {"measurement": "AC50", "setting": "[14]", "value": "11 µM (active)"}
    ]},
    {"smiles": "Cc1nc2nc(C)c(CCC(=O)NC3CCCCC3)c(C)n2n1", "values": [
      {"measurement": "IC50", "setting": "[15]", "value": "> 83.4 µM (inactive)"},
      {"measurement": "IC50", "setting": "[16]", "value": "> 109 µM (inactive)"}
    ]},
    {"smiles": "C[C@@H](O)C#Cc1ccc2c(c1)O[C@@H](CN(C)Cc1ccccc1)[C@@H](C)CN([C@@H](C)CO)S2(=O)=O", "values": [
      {"measurement": "AC50", "setting": "[17]", "value": "> 60 µM (inactive)"}
    ]},
    {"smiles": "COc1ccc(C#Cc2ccc([C@@H]3[C@@H](CO)N4CCCCN(C(=O)Nc5cccc(F)c5)C[C@H]34)cc2)cc1", "values": [
      {"measurement": "AC50", "setting": "[18]", "value": "1.66 µM (active)"},
      {"measurement": "AC50", "setting": "[19]", "value": "0.698 µM (active)"},
      {"measurement": "AC50", "setting": "[20]", "value": "0.738 µM (active)"},
      {"measurement": "AC50", "setting": "[21]", "value": "7.51 µM (active)"},
      {"measurement": "AC50", "setting": "[14]", "value": "1.35 µM (active)"},
      {"measurement": "AC50", "setting": "[22]", "value": "0.083 µM (active)"}
    ]},
    {"smiles": "N#Cc1ccc(-c2ccc3c(c2)[C@H]2[C@H](CCN2C(=O)C2CCCCC2)[C@@H](CO)N3)cc1", "values": [
      {"measurement": "AC50", "setting": "[17]", "value": "48.7 µM (active)"}
    ]}
  ]
}
